The data set in a line: Uptake of L-carnitine by patients from oral dosage forms, measured by serum plasma levels. Format: in vivo. The text has this:
Softgel capsules provide improved delivery of the components of the composition of the present invention compared to alternative dosage forms. For example, the uptake of L-carnitine by patients from tablets (e.g., measured by serum plasma levels) is about 10-14%; the uptake of L-carnitine from standard hard capsules is about 15-20%; whereas the uptake of L-carnitine from softgel capsules is about 100%.

For `C[N+](C)(C)C[C@H](O)CC(=O)[O-]` [L-carnitine], the “uptake of L-carnitine” value runs as follows: (from softgel capsules) “about 100%”; (from standard hard capsules) 15-20%; (from tablets) 10-14%.

The values above are taken from patent publication US20070243211A1, “Compositions for regulating metabolic disorders and methods of use thereof” (priority 2005, published 2007).
